Data taken from EP2608783B1, “USE OF GLYCYRRHETINIC ACID, GLYCYRRHIZIC ACID AND RELATED COMPOUNDS FOR PREVENTION AND/OR TREATMENT OF PULMONARY FIBROSIS” (Zhang, Lurong, priority 2010, dated 2012).

Key:
IR-induced pneumonitis [1] = assay: Clinical case: GLA tablets in a lung cancer patient receiving 2nd IR treatment; assay type: in vivo; settings: one patient
Description: In collaboration with radiation oncologists at the First Affiliated Hospital of Fujian Medical School in China, GLA tablets (produced by Minophagen Co. in Japan and available in pharmacies in China) were administered to a patient who received their 2nd IR treatment for lung cancer. […] To control the progression of pneumonitis, they received dexamethasone treatment. Due to tumor re-growth 9 months after their 1st IR treatment, they received a 2nd IR treatment with warnings that IR may worsen pneumonitis. In order to mitigate IR-induced lung injury, GLA was administered at a dose of 150 mg per day (equivalent to GA about 85 mg per day) starting from the date of 2nd IR treatment for 3 months. The result was unexpectedly surprising.

[2] = system: inflammatory mediators (IMs), including IL1a, TNFa, PF4 and VCAM-1; assay: Inflammatory mediators in lung homogenates by ELISA, acute phase of IR-induced pneumonitis; assay type: in vivo, C57BL/6 fibrosis-prone mice; settings: 2.5 days after thoracic IR at 15 Gy, compared to vehicle-treated mice, p<0.05
Description: Briefly, C57BL/6 fibrosis-prone mice received a single-dose of thoracic IR at 15 Gy with a dose rate of 1.9 Gy/min. Six hours after IR exposure, the mice were divided into the following treatment groups: 1) normal (received 0 Gy; no treatment); 2) vehicle-treated; 3) GA-treated (30-40 mg/kg/ q.o.d) (i.e. every other day) (the GA dosage used herein was derived from the effective dosage for humans (3-4 mg/kg), which is typically 6-10 times lower than that of mice); 4) dexamethasone-treated (Positive Control 1) (Dex, 3 mg/kg, i.m. or p.o. qod); 5) amifostine-treated (Positive Control 2) (Ami, 200 mg/kg/ i.v, 0.5 hr prior to irradiation); and 6) celebrex-treated (Positive Control 3) (30 mg/kg, po, qod).
The mice were sacrificed 2.5 days after IR exposure, and fresh lung tissue homogenates were prepared using lysis buffer mixed with protenase inhibitor cocktails. After protein concentration was adjusted to 1 mg/ml, the fresh lung homogenates were added to ELISA plates at a concentration of 100 µl/well. The levels of inflammatory mediators were measured by ELISA.

[3] = system: IR-induced pulmonary fibrosis; assay: Lung density by cone beam CT scan (CBCT) in IR-induced pulmonary fibrosis; assay type: in vivo, mice; settings: for abnormal increase in lung density: 7.5 months after IR exposure at 15 Gy (Figure 14), P<0.05
Description: To assess effects of GA on lung density, cone beam CT scan (CBCT) of mouse lungs was performed. CBCT provides a complete 3D 650×650×428 scan (i.e. 428 slices) of the lungs with isotropic resolution at 270 µm (central slice shown in Fig. 11) in 30 seconds. The scanner achieves a CT density sensitivity of ∼[…], and thus, changes in lung density can be discerned. The CBCT imaging data were further analyzed using MATLAB software. The lungs were automatically segmented (Fig. 12A) and a 3D image was generated for each mouse lung (Fig. 12B). To reduce the effect of cardiac motion on the mean value of lung density, boundaries of the lungs were not used for analysis. A histogram of voxel intensity (pulmonary tissue density) of each mouse was created (Fig. 13).

[4] = Long-term toxicity observation (activity, fur morphology, body weight); assay type: in vivo
Description: No mouse died during GA treatment.

IR-induced pneumonitis [5] = assay: Lung morphology: plasma exudation and inflammatory cell infiltration, acute phase of IR-induced pneumonitis; assay type: in vivo, C57BL/6 fibrosis-prone mice; settings: 2.5 days after thoracic IR at 15 Gy
Description: Briefly, C57BL/6 fibrosis-prone mice received a single-dose of thoracic IR at 15 Gy with a dose rate of 1.9 Gy/min and were treated as described in Example 2. The mice were sacrificed 2.5 days after IR exposure, and lung tissues were harvested and analyzed for morphological changes.

IR-induced pneumonitis [6] = assay: Sub-acute phase of IR-induced pneumonitis: lung tissue and bronchoalveolar lavage fluid (BALF) assays; assay type: in vivo, C57BL/6 fibrosis-prone mice
Description: Briefly, C57BL/6 fibrosis-prone mice received a thoracic IR and were treated as described in Example 2. The mice were sacrificed 17 days after IR exposure, and lung tissues were harvested. Bronchoalveolar lavage fluid (BALF) assays were performed.

IR-induced fibrosis = assay: Lung histology (H&E stain, trichrome blue collagen stain) in IR-induced fibrosis; assay type: in vivo, mice; settings: GA 40 mg/kg/q.o.d. for 3 months; 7 months after IR exposure at 15 Gy
Description: Briefly, mice treated with GA (40 mg/kg/q.o.d.) for 3 months were sacrificed 7 months after IR exposure at 15 Gy, and lung tissue specimens were stained using hematoxylin and eosin (H&E) stain. […] To assess whether GA reduces abnormal collagen deposition in lungs, lung tissue specimen was stained with collagen-binding trichrome blue dye.

growth hormone (GH) = assay: Plasma growth hormone by ELISA during long-term treatment
Description: In addition, plasma levels of growth hormone (GH) were measured using ELISA at Weeks 6, 7, and 10 after GA treatments.

[7] = system: IR-induced pulmonary fibrosis; assay: Lung compliance (plethysmograph pressure-volume measurements); assay type: in vivo, mice; settings: 6.5 months after IR exposure at 15 Gy; P<0.05
Description: To assess the effects of GA on lung compliance, mice were anesthetized and their trachea were surgically exposed and incised. An 18-gauge, 1 cm stainless steel tube was inserted into the trachea and secured with surgical sutures. The respiratory rate and tidal volume of the mice were measured by a Harvard rodent ventilator. The average respiratory rate was 150 breaths per minute and the tidal volume was adjusted according to the weight (0.01 ml per gram body weight). The mice were then placed in a plethysmograph for pressure-volume measurements.

[8] = system: IR-induced pulmonary fibrosis; assay: Respiratory rate (rodent ventilator with pressure plethysmograph) in IR-induced pulmonary fibrosis; assay type: in vivo, mice; settings: GA 30-40 mg/kg q.o.d. or twice/week for 3 months; 7 months after IR at 15 Gy, 5 months after IR at 18 Gy; P<0.05
Description: Mice exposed to thoracic IR develops pulmonary fibrosis 6 months after IR exposure at 18 Gy, 8 months after IR exposure at 15 Gy, and 10 months after IR exposure at 12.5 Gy. To access the treatment effects of GA on lung fibrosis and lung function, the respiratory rate, lung density, and lung compliance of the mice were determined. To assess improvement on respiratory function, mice exposed to thoracic IR at 15 Gy were treated with GA (30-40 mg/kg) q.o.d. or twice/week for 3 months. Mouse respiratory rate was measured using a Harvard rodent ventilator connected to a pressure plethysmograph.

SP-D and IL1a = assay: Plasma levels of SP-D and IL1a, acute phase of IR-induced pneumonitis; assay type: in vivo, C57BL/6 fibrosis-prone mice; settings: 2.5 days after thoracic IR at 15 Gy; P<0.05
Description: IR damages lung epithelium and endothelium cells, and causes dysfunction of tight junction, increased cellular permeability, and the loss of integrity of the alveolar-capillary barrier. As a result, SP-D and ILla abnormally enter into the blood from inflamed pulmonary tissue, leading to elevated plasma levels of SP-D and IL1a. In this Example, C57BL/6 fibrosis-prone mice received a single-dose of thoracic IR at 15 Gy with a dose rate of 1.9 Gy/min and were treated as described in Example 2. The mice were sacrificed 2.5 days after IR exposure, and plasma levels of SP-D and IL1a were measured.

hydroxyproline; TGFβ = assay: Hydroxyproline and TGFβ levels in lungs; assay type: in vivo, mice
Description: The reduction of collagen deposition was further analyzed by measuring the levels of hydroxyproline, a key component of collagen.

[9] = system: IL1a, TNFa, lymphotactin and p-selectin; assay: Inflammatory mediators, GA given 24 hours after IR exposure; assay type: in vivo, mice; settings: GA administered 24 hours after IR exposure; thoracic IR at 5, 10 and 15 Gy
Description: The administration of GA 24 hours after IR exposure can effectively block the surge in inflammatory responses.

pulmonary fibrosis = assay: Inventors' observation on dexamethasone in pulmonary fibrosis; assay type: in vivo; settings: compared to the non-treated controls
[10] = system: ACTH (adrenocorticotropic hormone); settings: in vivo
Description: The chemical structure of GA is similar to that of cortisol. Thus, this Example investigates whether the long-term use of GA would affect the production of cortisol and cause side effects. The plasma levels of ACTH (adrenocorticotropic hormone), a cortisol-releasing hormone, were measured using ELISA at Weeks 6, 7, and 10 after GA-treatments (40 mg/kg, qod, p.o).

[11] = 17 days after IR exposure at 15 Gy, P<0.05
[12] = 17 days after IR exposure, P<0.05

With `CC1(C)[C@@H](O[C@H]2O[C@H](C(=O)O)[C@@H](O)[C@H](O)[C@H]2O[C@@H]2O[C@H](C(=O)O)[C@@H](O)[C@H](O)[C@H]2O)CC[C@]2(C)[C@H]3C(=O)C=C4[C@@H]5C[C@@](C)(C(=O)O)CC[C@]5(C)CC[C@@]4(C)[C@]3(C)CC[C@@H]12` [GLA, glycyrrhizic acid] the “symptoms of pneumonitis or fibrosis” value (IR-induced pneumonitis [1]; 150 mg per day for 3 months from date of 2nd IR treatment) was “did not exhibit any symptom of pneumonitis or fibrosis” and the “lung density (CT)” value (IR-induced pneumonitis [1]; CT results of 1st versus 2nd IR treatment (Figure 20)) was “significantly reduced”.
In the case of `Cc1ccc(-c2cc(C(F)(F)F)nn2-c2ccc(S(N)(=O)=O)cc2)cc1` [celebrex, reference compound], the “levels of inflammatory mediators (IMs), including IL1a, TNFa, PF4 and VCAM-1” value (from here on “levels of inflammatory mediators (IMs)”) [2] is reported as “extent of inhibition by GA was comparable”, the “abnormal increase in lung density” value [3] is reported as “reduction in lung density by GA is more potent” and the “loss of body weight (BW)” value ([4]; 7.5 months post IR exposure at 15 Gy, vehicle-treated mice lost 6-7 grams) is reported as “less severe loss of BW”.
In the case of `CC1(C)[C@@H](O)CC[C@]2(C)[C@H]3C(=O)C=C4[C@@H]5C[C@@](C)(C(=O)O)CC[C@]5(C)CC[C@@]4(C)[C@]3(C)CC[C@@H]12` [GA, glycyrrhetinic acid], the “plasma exudation and inflammatory cell infiltration into the interstitial space” value (IR-induced pneumonitis [5]) is reported as “potently suppressed”, the “infiltration of neutrophils into the interstitial fluid” value (IR-induced pneumonitis [6]; 17 days after IR exposure at 15 Gy) is reported as “suppression” and the “level of neutrophils infiltrated into the bronchoalveolar lavage fluid” value (IR-induced pneumonitis [6]; [11]) is reported as “reduced”. The “myeloperoxidase (MPO) activity in (BALF)” value (IR-induced pneumonitis [6]; [11]) was “reduced”, the level of lymphotactin (IR-induced pneumonitis [6]; [12]) was “reduced” and the level of p-selectin (IR-induced pneumonitis [6]; [12]) was “reduced”. For the same molecule, the “collagen deposition caused by IR exposure (trichrome blue dye)” value (IR-induced fibrosis) was “reduces”, the “lung morphology (H&E stain)” value (IR-induced fibrosis) was “near-normal morphology” and the “levels of inflammatory mediators (IMs)” value [2] was “effectively reduced”. For the same molecule, the “abnormal increase in lung density” value [3] was “significantly reduced”, the “Mean Density (HU)” value ([3]; lung density, 1 year post IR exposure at 18 Gy) was -458 HU and the “plasma GH level” value (growth hormone (GH); in vivo) was “increased”. The lung compliance [7] was “potently, and mostly effectively, enhanced”, the respiratory rate [8] was “effectively reduced” and the death during treatment ([4]; long-term use) was “No mouse died”. For the same molecule, the “side effects of long-term use” value ([4]; mouse, in vivo) was “little side effects”, the “plasma levels of IL1a” value (SP-D and IL1a) was “effectively reduced” and the “plasma levels of SP-D” value (SP-D and IL1a) was “effectively reduced”. For the same molecule, the “hydroxyproline levels in the lungs” value (hydroxyproline; TGFβ; compared to IR + vehicle control, P<0.05) was “reduced”, the “level of TGFβ” value (hydroxyproline; TGFβ; pro-fibrotic factor, Figure 18B) was “reduced” and the “levels of key inflammatory mediators including IL1a, TNFa, lymphotactin and p-selectin” value [9] was “potently reduced”.
With `NCCCNCCSP(=O)(O)O` [amifostine] the “levels of inflammatory mediators (IMs)” value [2] was “extent of inhibition by GA was comparable”.
With `C[C@@H]1C[C@H]2[C@@H]3CCC4=CC(=O)C=C[C@]4(C)[C@@]3(F)[C@@H](O)C[C@]2(C)[C@@]1(O)C(=O)CO` [dexamethasone] the “effect on pulmonary fibrosis” value (pulmonary fibrosis) was “worsening of pulmonary fibrosis”, the “reduction in ACTH levels” value [10] was 10-50 fold and the “plasma GH level” value (growth hormone (GH); measured at Weeks 6, 7, and 10) was “increased”.
